From US8357671B2, “High affinity Siglec ligands” (priority 2005, dated 2013) come the findings set out here.

Where “and” joins values, the source holds several entries; their conditions need not be identical. Identical values can stand only once.

Experiment [1] has as its target T1, cell surface CD22 (hCD22) on Daudi cells (Homo sapiens, UniProt P20273).
T1 construct: endogenous in cells; host or cells: Daudi cells (sialidase-treated)
T1 sequence (P20273 20-847): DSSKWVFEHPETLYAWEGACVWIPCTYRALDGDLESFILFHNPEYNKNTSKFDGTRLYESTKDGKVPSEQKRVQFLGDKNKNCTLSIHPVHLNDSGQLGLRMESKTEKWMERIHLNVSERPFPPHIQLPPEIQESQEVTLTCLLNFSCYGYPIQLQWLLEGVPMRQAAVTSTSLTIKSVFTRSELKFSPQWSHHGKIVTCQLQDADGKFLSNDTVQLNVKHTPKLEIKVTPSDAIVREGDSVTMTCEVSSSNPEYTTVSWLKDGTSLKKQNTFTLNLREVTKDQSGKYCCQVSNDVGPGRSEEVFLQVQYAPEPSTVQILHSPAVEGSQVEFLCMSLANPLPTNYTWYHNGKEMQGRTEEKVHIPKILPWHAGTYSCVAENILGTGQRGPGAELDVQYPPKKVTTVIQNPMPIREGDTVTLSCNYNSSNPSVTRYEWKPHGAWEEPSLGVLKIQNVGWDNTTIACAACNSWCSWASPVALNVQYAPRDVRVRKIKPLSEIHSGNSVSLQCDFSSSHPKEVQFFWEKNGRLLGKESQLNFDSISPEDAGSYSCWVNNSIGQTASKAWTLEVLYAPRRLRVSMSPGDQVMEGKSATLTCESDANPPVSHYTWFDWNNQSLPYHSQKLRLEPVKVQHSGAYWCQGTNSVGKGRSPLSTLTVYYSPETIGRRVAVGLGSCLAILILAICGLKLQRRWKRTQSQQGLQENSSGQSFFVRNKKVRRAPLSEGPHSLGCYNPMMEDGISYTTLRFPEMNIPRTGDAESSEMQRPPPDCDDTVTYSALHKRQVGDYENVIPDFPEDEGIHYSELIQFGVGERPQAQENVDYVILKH
Kind of experiment: Inhibition of NeuAc-LN-PAA probe binding to sialidase-treated Daudi cells. Type of experiment: cell-based. The note with it: inhibitor 10, 30, 200 uM. As to the method: FIG. 2A-B illustrate inhibition of multivalent sialoside probe binding to cell surface CD22 by potent biphenyl (BP) derivatives. FIG. 2A provides the results for murine splenocytes. Murine splenocytes were mock-treated (grey shaded peak) or actually treated with A. ureafaciens sialidase to cleave sialic acid-containing glycans from cell surfaces and thereby ‘unmask’ surface CD22. The cells were then incubated with NeuGc-LN-PAA alone (rightmost Black line, where PAA refers to a polyacrylamide carrier) or in the presence of 5 uM (light line to the right of center), 200 uM (central grey line) or 2 mM (leftmost dark grey line) of the indicated inhibitor for 1.5 h on ice, then washed. Bound probe was detected with streptavidin-PE, and B cells stained with anti-B220. Data are for B220+ cells only. FIG. 2B provides results for Daudi Cells. […] Bound probe was detected with streptavidin-PE and measured by flow cytometry. […]
Inhibition of Probe-Binding to B cells by Sialic Acid Inhibitors. […] These “cis” glycan ligands can mask binding of sialic acid ligands provided in “trans.” After treatment with sialidase, inhibition of B cell binding by monovalent BPC-NeuAc-LN and BPA-NeuGc-LN was detected for multivalent polyacrylamide (PAA) sialoside probes derivatized with NeuAc-LN (hCD22) or NeuGc-LN (mCD22) (FIG. 2).

A further experiment deals with T2, human CD22 (Homo sapiens, UniProt P20273).
T2 construct: made in house
Kind of experiment: ELISA inhibition assay: CD22-Fc chimera binding to immobilized NeuAc-LN. The note with it: for IC50: inhibition of CD22-Fc binding to immobilized NeuAcα2,6LacNAc, read-out: IC 50 value hCd22; for rIP hCd22 (relative inhibitory potency): relative to NeuAc-LN = 1. As to the method:
(§1) FIG. 1A-B illustrate that sialosides with derivation at position 9 that includes a neutral core and a hydrophobic moiety are potent inhibitors for CD22. Similar inhibitors can be made by derivation at position 5. […] FIG. 1B graphically illustrates competitive inhibition of selected sialoside inhibitors. Inhibitors were added with soluble CD22-Fc chimeras to block the chimera binding to immobilized NeuAcα2-6Galβ1-4GlcNAc (NeuAc-LN, human CD22, hCD22) or NeuGcα2,6Galβ1-4GlcNAc (NeuGc-LN, mouse CD22, mCD22). Data are the average +/−S.D. of triplicate determinations and are representative of two individual assays.
(§2) ELISA inhibition assays: For inhibition assays, high binding 96 well microtiter plates (Corning Costar) were coated with neutravidin by incubation with 50 ul of 1 mg/ml Neutravidin (Pierce Biotechnology) in 50 mM Na bicarbonate pH 9.5 overnight at 4° C. The wells were then washed with PBS and blocked with PBS containing 5 mg/ml BSA for 1 hr at 37° C. Fifty microliters of a selected biotinylated sialoside (0.33 uM) was added to each well, and allowed to bind for 1 hr at room temperature. The sialoside was then allowed to bind for 1 hr at 37° C. and the wells were washed.
(§3) The CD22-Fc chimera employed was produced as described in Blixt et al. (J. Biol. Chem. 278: 31007-19 (2003)) and diluted to 0.1 mg/ml into HBSS (with 5 mg/ml BSA and 1 mM EDTA). An F(ab′)2 Fragment Goat anti-Human IgG (Jackson Immunoresearch) (0.066 mg/ml) was mixed and allowed to complex with Peroxidase conjugated F(AB′)2 Fragment Rabbit anti Goat F(ab′)2 specific (0.010 mg/ml) for 15 min. CD22-Fc (1.5 ml) was added to 1 ml of the pre-complexed solution and allowed to further associate with complexes in that solution for 15 min. The inhibitor of interest was diluted into HBSS. Twenty-five microliters of the inhibitor and 25 ul of the CD22Fc complex were added to each well and the plates were incubated for 30 min at 37° C. The plates were then washed 4 times with 200 ul of HBSS. Wells were developed with 50 ul of 1 mg/ml OPD (Sigma), 0.03% H2O2 in 50 mM phosphate/citrate, pH 5.0. The reaction was stopped with 50 ul of 2.5 M H2SO4 and the optical density at 450 nm (OD450) was measured.
(In an ELISA, binding on a coated surface is turned into a signal by an enzyme label.)

The target of another experiment is T3, mouse CD22 (Mus musculus, UniProt P35329).
T3 construct: made in house
Briefly: ELISA inhibition assay: CD22-Fc chimera binding to immobilized NeuGc-LN. The note with it: for IC50: inhibition of CD22-Fc binding to immobilized NeuGcα2,6LacNAc, read-out: IC 50 value mCd22; for rIP mCd22 (relative inhibitory potency): relative to NeuGc-LN = 1. As to the method:
as §1, §2, §3

For experiment [2], the target named is T4, CD22Fc chimeras (hCD22Fc) (Homo sapiens, UniProt P20273).
T4 construct: made in house; host or cells: COS cells
Briefly: ELISA-type assay of IgM/NP-BPC/CD22 complex formation. Type of experiment: binding. As to the method:
FIG. 7A-7C illustrate a self-assembling B cell targeting complex as one aspect of the invention. […] CD22-Fc chimeras were immobilized onto protein A coated wells. After washing, the indicated amount of either NP, or NP-BPC was added along with the anti-NP IgM was added and allowed to bind for 30 min at room temperature. After washing, bound IgM was detected with HRP-conjugated anti-IgM and developed with OPD. Data are the average ±S.D. of triplicates, and are representative of 3 independent experiments.
ELISA-Type Assay. High Binding microtiter plates were coated with neutravidin (1 ug/50 ul/well in Na Bicarbonate pH 9.5) overnight at 4° C., then washed with 200 ul of HBSS/BSA. Culture supernatants containing hCD22Fc chimera were incubated in the wells for 2 h at room temperature. Wells were then washed and a mixture of IgM antibodies that recognize nitrophenyl groups (anti-NP antibodies) and 50 ul of varying concentrations of the BPC-Siaα2-6LN heterobifunctional ligand were added. The plates were allowed to bind for 30 min. […]
CD22Fc chimeras were immobilized onto microtiter plates and overlaid with mixtures of IgM anti-NP and NP or NP-BPC. Following washing, bound IgM complex was detected with HRP-conjugated anti-Ig antibodies. CD22-dependent binding of the complex was detected, with maximal IgM complex binding achieved when using less than 200 nM NP-BPC.

For experiment [3], the target named is T5, CD22 on asialo K20 cells (BJAB subclone) (Homo sapiens, UniProt P20273).
T5 sequence (P20273 20-847): T1 sequence (P20273 20-847)
Kind of experiment: Self-assembled IgM complex binding to asialo cells.
Description: Following washing, bound IgM was detected with FITC-labeled anti-Ig and read by flow cytometry. […] Free NP, the heterobifunctional ligand, and the IgM anti-NP were all added to BJAB cells and allowed to incubate on ice before washing. Bound IgM was detected as described for FIG. 5B. […] After binding of a self-assembled complex of NP-BPC and Alexa Fluor-labeled anti-NP IgM antibodies to BJAB cells on ice, the cells were washed and allowed to internalize the complex for the indicated period of time. After a brief acid wash to remove any surface IgM, internalized IgM was quantified by flow cytometry.
Cell Binding. BJAB cells, incubated with or without exogenous sialic acid (4 mM) for 2 days, were resuspended in HBSS/BSA at a density of 1×10^6 cells/ml and the varying amounts of IgM and the BPC-NP construct shown in FIG. 7 were added to the cells and allowed to bind for 1 hr on ice. Cells were then washed with 1 ml of HBSS/BSA and then incubated with FITC-labeled anti-IgM for 30 min on ice. After washing again, the cells were read by flow cytometry.
To further evaluate the ability for the IgM complex to bind to CD22 on B cells, cells deficient in cell-surface sialic acid were used.

The target of experiment [4] is T6, CD22 on sialylated (native) BJAB cells (Homo sapiens, UniProt P20273).
T6 construct: endogenous in cells; host or cells: BJAB cells (incl. K20 subclone)
T6 sequence (P20273 20-847): T1 sequence (P20273 20-847)
Kind of experiment: Self-assembled IgM complex binding to sialylated BJAB cells. Type of experiment: cell-based. The settings on record: high concentration of cis ligands.

The subject of a further experiment is Siglec 10. Briefly: PAA probe binding to Siglec 10. The note with it: result in words. An excerpt: Building on the binding studies described above, polyacrylamide (PAA) probes containing the BPA-NeuGc-LN or BPC-NeuAc-LN sialosides were synthesized and tested for binding to CD22. […] Siglec 10 another B cell lectin, however, binds well to the NeuGc-LN glycan, but in contrast to CD22, only weakly to the high molecular weight BPA derivative.

A further experiment deals with BJAB cells. Briefly: Measurement of probe internalization. Type of experiment: cell-based, human. The settings on record: caveolin inhibitor.

T3 sequence (P35329 with tags, fused parts or gaps limits assumed): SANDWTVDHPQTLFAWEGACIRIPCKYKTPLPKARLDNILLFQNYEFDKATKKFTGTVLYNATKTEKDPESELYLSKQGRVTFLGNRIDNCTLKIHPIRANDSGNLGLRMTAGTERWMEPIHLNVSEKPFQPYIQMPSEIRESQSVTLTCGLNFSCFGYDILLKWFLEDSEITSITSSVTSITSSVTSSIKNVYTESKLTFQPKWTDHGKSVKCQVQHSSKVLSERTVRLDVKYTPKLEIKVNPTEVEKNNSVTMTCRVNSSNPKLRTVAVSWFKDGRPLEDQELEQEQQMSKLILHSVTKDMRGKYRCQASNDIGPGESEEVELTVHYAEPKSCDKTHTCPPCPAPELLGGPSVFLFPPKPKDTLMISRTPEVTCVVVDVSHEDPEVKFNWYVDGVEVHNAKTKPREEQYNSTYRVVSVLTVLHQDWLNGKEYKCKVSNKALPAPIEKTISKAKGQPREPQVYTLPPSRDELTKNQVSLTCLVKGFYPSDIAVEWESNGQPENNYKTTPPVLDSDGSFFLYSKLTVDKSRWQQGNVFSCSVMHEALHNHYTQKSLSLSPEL
T2 sequence (P20273 with tags, fused parts or gaps limits assumed): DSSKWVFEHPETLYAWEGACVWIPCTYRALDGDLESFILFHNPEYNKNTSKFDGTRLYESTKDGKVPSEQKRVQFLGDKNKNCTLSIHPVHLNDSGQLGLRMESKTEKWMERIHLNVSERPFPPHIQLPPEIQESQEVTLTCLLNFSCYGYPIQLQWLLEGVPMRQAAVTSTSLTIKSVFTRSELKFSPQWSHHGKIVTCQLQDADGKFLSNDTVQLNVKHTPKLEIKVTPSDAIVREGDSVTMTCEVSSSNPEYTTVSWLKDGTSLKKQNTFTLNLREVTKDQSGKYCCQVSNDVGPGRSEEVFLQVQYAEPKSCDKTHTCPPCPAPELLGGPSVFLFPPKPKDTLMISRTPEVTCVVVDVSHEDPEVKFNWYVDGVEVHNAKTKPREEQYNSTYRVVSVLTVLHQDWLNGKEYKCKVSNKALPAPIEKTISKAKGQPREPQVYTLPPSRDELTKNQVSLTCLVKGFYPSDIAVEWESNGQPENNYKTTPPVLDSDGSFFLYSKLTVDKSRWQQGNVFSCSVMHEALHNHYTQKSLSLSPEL
T4 sequence (P20273 with tags, fused parts or gaps limits assumed): as above

On to “9-biphenylcarbonyl (BPC)-Neu5Acα2-6Galβ1-4GlcNAc [BPC-NeuAcLN]”, for which the “inhibition of NeuAc-LN-PAA probe binding” value in experiment [1] is reported as “complete inhibition”. Besides, on human CD22, the IC50 was 2 µM and 2.2 µM; the “rIP hCd22 (relative inhibitory potency)” value amounted to 100. In addition, on mouse CD22, the IC50 is 242 µM and the “rIP mCd22 (relative inhibitory potency)” value was determined as 0.91.

Turning to `CC(=O)NC1C(O)CC(O)(C(=O)O)OC1C(O)C(O)CNC(=O)c1ccc(-c2ccccc2)cc1` [BPC-NeuAc, 5-Acetamido-9-[(1,1′-biphenyl)-4-carboxamido]-3,5,9-trideoxy-D-glycero-D-galacto-2-nonulo-pyranosyl-onate], on human CD22, the IC50 was found to be 35 µM and the “rIP hCd22 (relative inhibitory potency)” value was 6.3. Also, at mouse CD22, the IC50 was 1500 µM and the “rIP mCd22 (relative inhibitory potency)” value was 0.15.

Turning to `CC(=O)N[C@H]1[C@H](OCCNC(=O)Cc2ccc(O)c([N+](=O)[O-])c2)O[C@H](CO)[C@@H](O[C@@H]2O[C@H](CO[C@]3(C(=O)O)C[C@H](O)[C@@H](NC(C)=O)[C@H]([C@H](O)[C@H](O)CNC(=O)c4ccc(-c5ccccc5)cc4)O3)[C@H](O)[C@H](O)[C@H]2O)[C@@H]1O` [NP-BPC, [(4′-hydroxyl-3′-nitrophenylacetamido)-ethyl-β-]-[[5-Acetamido-9-[(1,1′-biphenyl)-4-carboxamido]-3,5,9,trideoxy-D-glycero-D-galacto-2-nonulo-pyranosyl-onate-α2-6-O-D-galactopyranosyl-β1-4]]-D-2-acetamido-2-deoxy-glucopyranoside], the “concentration for maximal IgM complex binding” value in experiment [2] is “less than 200 nM”. Also, in experiment [3], the “concentration at maximal binding of the complex” value came to 0.16 µM. Moreover, in experiment [4], the “binding to CD22 on sialylated BJAB cells” value is listed as “bound efficiently”.

On to `CC(=O)N[C@H]1[C@H]([C@H](O)[C@H](O)CO)OC(O)(C(=O)O)C[C@@H]1O` (stereo partly drawn) [NeuAc, N-acetylneuraminic acid], for which, on human CD22, the IC50 was more than 2000 µM and the “rIP hCd22 (relative inhibitory potency)” value was less than 0.1. In addition, the “inhibition of Siglec binding to immobilized sialoside” value on human CD22 (result in words) is listed as “no inhibition”. Also, at mouse CD22, the IC50 was more than 2000 µM and the “rIP mCd22 (relative inhibitory potency)” value is recorded as less than 0.1.

`CC(=O)N[C@@H]1[C@@H](O)[C@H](O[C@@H]2O[C@H](CO[C@]3(C(=O)O)C[C@H](O)[C@@H](NC(C)=O)[C@H]([C@H](O)[C@H](O)CO)O3)[C@H](O)[C@H](O)[C@H]2O)[C@@H](CO)O[C@H]1O` [NeuAc-LN, NeuAcα2-6Galβ1-4GlcNAc]: on human CD22, the IC50 is 200 µM and 220 µM; the “rIP hCd22 (relative inhibitory potency)” value is reported as 1. Besides, at mouse CD22, the IC50 was more than 2000 µM and the “rIP mCd22 (relative inhibitory potency)” value was less than 0.1.

Turning to `CC(=O)NC1C(O)OC(CO)C(OC2OC(COC3(C(=O)O)CC(O)C(NC(=O)CO)C(C(O)C(O)CO)O3)C(O)C(O)C2O)C1O` (stereo not drawn) [NeuGc-LN, NeuGcα2,6Galβ1-4GlcNAc], on human CD22, the IC50 was 260 µM and the “rIP hCd22 (relative inhibitory potency)” value was 0.85. Further, in the experiment with Siglec 10, the “binding to Siglec 10” value is recorded as “binds well”. Moreover, at mouse CD22, the IC50 came to 221 µM and the “rIP mCd22 (relative inhibitory potency)” value is listed as 1.

Turning to `C[C@@H]1[C@H](O)[C@@H](C)/C=C/C=C/CC/C=C/C=C/C=C/C=C/C(O[C@H]2O[C@H](C)[C@@H](O)[C@H](N)[C@@H]2O)CC2O[C@](O)(CC(O)C(O)CCC(O)CC(O)CC(O)CC(=O)O[C@H]1C)CC(O)C2C(=O)O` (stereo partly drawn) [nystatin], the “effect on probe internalization” value in the experiment with BJAB cells is recorded as “did not inhibit”.
